Patent publication US9156827B2, “Anticancer agent” (THE UNIVERSITY OF TOKYO, priority 2010, dated 2015)

Tests used:
[1] = test system: Human acute myeloid leukemia MV4-11 cells; test: Cell proliferation-suppressing activity, chromogenic method (Cell Counting Kit-8); type: cell-based; conditions: compound 1 μM, 48 hours, Cell Counting Kit-8, absorbance 450 nm
Experimental: Measurement of Cell Proliferation-Suppressing Activity (Chromogenic Method)
Human acute myeloid leukemia MV4-11 cells (2×10^4 cells) are inoculated on a 96-well microtiter plate. Each compound is added at a final concentration of 1 μM on the next day, and the cells are cultured for additional 48 hours. Absorbance is measured at 450 nm by using Cell Counting Kit-8 (Nacalai Tesque) to calculate the cell proliferation-suppressing activity.

[2] = molecular target: pim-1 kinase (Homo sapiens, UniProt P11309); test: Measurement of pim-1 kinase inhibitory activity (fluorescent substrate peptide, capillary electrophoresis); type: biochemical; conditions: 0.1 μM of each compound, 30 μM ATP, 1.5 μM substrate peptide, room temperature 2 hours
Experimental: Measurement of Pim-1 Kinase Inhibitory Activity
The result of the reaction was determined by quantifying the substrate and the phosphorylated reaction product separated by capillary electrophoresis based on difference in charges of the substances (EZ Reader II, Caliper Life Sciences, was used).

Sequence of pim-1 kinase (P11309 whole entry): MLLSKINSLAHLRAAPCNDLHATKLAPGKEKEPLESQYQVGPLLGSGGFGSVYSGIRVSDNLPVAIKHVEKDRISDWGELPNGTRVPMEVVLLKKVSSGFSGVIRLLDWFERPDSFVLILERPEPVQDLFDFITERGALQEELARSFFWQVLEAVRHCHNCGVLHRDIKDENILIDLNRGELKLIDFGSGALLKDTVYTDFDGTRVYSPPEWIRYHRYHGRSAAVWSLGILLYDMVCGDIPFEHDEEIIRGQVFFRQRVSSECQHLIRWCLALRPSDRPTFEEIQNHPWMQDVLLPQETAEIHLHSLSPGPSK

| Structure (SMILES) | inhibition at 0.1 µM ([2]; Table 2) | inhibition at 1 µM ([1]; Table 7) | other results |
| --- | --- | --- | --- |
| O=C1/C(=C/c2c[nH]c3ccccc23)Oc2c1ccc(O)c2CN1CCCNCC1 [Compound A55, (Z)-7-[(1,4-Diazepan-1-yl)methyl]-2-[(1H-indol-3-yl)methylene]-6-hydroxybenzofuran-3(2H)-one] | – | – | inhibition at 1 µM ([1]; Table 6): 79%; inhibition at 0.1 µM ([2]; Table 1): 46% |
| O=C1/C(=C/c2c[nH]c3ccccc23)Oc2c(CN3CCNCC3)cccc21 [Compound A56, (Z)-2-[(1H-indol-3-yl)methylene]-7-(piperazin-1-ylmethyl)benzofuran-3(2H)-one] | – | – | inhibition at 1 µM ([1]; Table 6): 43%; inhibition at 0.1 µM ([2]; Table 1): 80% |
| COc1ccc2c(c1CN1CCNCC1)O/C(=C\c1cn(S(=O)(=O)c3ccc(C)cc3)c3ccccc13)C2=O [Compound A57, (Z)-6-Methoxy-7-(piperazin-1-ylmethyl)-2-[(1-tosyl-1H-indol-3-yl)methylene]benzofuran-3(2H)-one] | – | – | inhibition at 1 µM ([1]; Table 6): 37%; inhibition at 0.1 µM ([2]; Table 1): 28% |
| O=C1/C(=C/c2c[nH]c3ncccc23)Oc2c(CN3CCNCC3)cccc21 [Compound A58, (Z)-2-[(1H-Pyrrolo[2,3-b]pyridin-3-yl)methylene]-7-(piperazin-1-ylmethyl)benzofuran-3(2H)-one] | – | – | inhibition at 1 µM ([1]; Table 6): 72%; inhibition at 0.1 µM ([2]; Table 1): 92% |
| CCOc1ccc2c(c1CN1CCNCC1)O/C(=C\c1c[nH]c3ccccc13)C2=O [Compound A59, (Z)-2-[(1H-Indol-3-yl)methylene]-6-ethoxy-7-(piperazin-1-ylmethyl)benzofuran-3(2H)-one] | – | – | inhibition at 1 µM ([1]; Table 6): 95%; inhibition at 0.1 µM ([2]; Table 1): 92% |
| CCCOc1ccc2c(c1CN1CCNCC1)O/C(=C\c1c[nH]c3ccccc13)C2=O [Compound A60, (Z)-2-((1H-Indol-3-yl)methylene)-7-(piperazin-1-ylmethyl)-6-propoxybenzofuran-3(2H)-one] | – | – | inhibition at 1 µM ([1]; Table 6): 91%; inhibition at 0.1 µM ([2]; Table 1): 84% |
| O=C1/C(=C/c2c[nH]c3ccccc23)Oc2c1ccc(OCc1ccccc1)c2CN1CCNCC1 [Compound A61, (Z)-2-[(1H-Indol-3-yl)methylene]-6-(benzyloxy)-7-(piperazin-1-ylmethyl)benzofuran-3(2H)-one] | – | – | inhibition at 1 µM ([1]; Table 6): 58%; inhibition at 0.1 µM ([2]; Table 1): 66% |
| O=C1/C(=C/c2n[nH]c3ccc(Br)cc23)Oc2c1ccc(O)c2CN1CCNCC1 [Compound B10, (Z)-6-Hydroxy-7-(piperazin-1-ylmethyl)-2-[(5-bromo-1H-indazol-3-yl)methylene]benzofuran-3(2H)-one] | 94% | – | – |
| COc1ccc2[nH]nc(/C=C3\Oc4c(ccc(O)c4CN4CCNCC4)C3=O)c2c1 [Compound B11, (Z)-6-Hydroxy-7-(piperazin-1-ylmethyl)-2-[(5-methoxy-1H-indazol-3-yl)methylene]benzofuran-3(2H)-one] | 87% | – | – |
| O=C1/C(=C/c2n[nH]c3ccc(OC(F)(F)F)cc23)Oc2c1ccc(O)c2CN1CCNCC1 [Compound B12, (Z)-6-Hydroxy-7-(piperazin-1-ylmethyl)-2-{[5-(trifluoromethoxy)-1H-indazol-3-yl]methylene}benzofuran-3(2H)-one] | 90% | – | – |
| O=C1/C(=C/c2n[nH]c3ccccc23)Oc2c1cc(Cl)c(O)c2CN1CCNCC1 [Compound B13, (Z)-2-[(1H-Indazol-3-yl)methylene]-5-chloro-6-hydroxy-7-(piperazin-1-ylmethyl)benzofuran-3(2H)-one] | 88% | – | – |
| O=C1/C(=C/c2n[nH]c3ccc(F)cc23)Oc2c1cc(Cl)c(O)c2CN1CCNCC1 [Compound B14, (Z)-5-Chloro-2-[(5-fluoro-1H-indazol-3-yl)methylene]-6-hydroxy-7-(piperazin-1-ylmethyl)benzofuran-3(2H)-one] | 80% | – | – |
| O=C1/C(=C/c2n[nH]c3ccc(Cl)cc23)Oc2c1cc(Cl)c(O)c2CN1CCNCC1 [Compound B15, (Z)-5-Chloro-2-[(5-chloro-1H-indazol-3-yl)methylene]-6-hydroxy-7-(piperazin-1-ylmethyl)benzofuran-3(2H)-one] | 90% | – | – |
| O=C1/C(=C/c2n[nH]c3ccc(Br)cc23)Oc2c1cc(Cl)c(O)c2CN1CCNCC1 [Compound B16, (Z)-5-Chloro-2-[(5-bromo-1H-indazol-3-yl)methylene]-6-hydroxy-7-(piperazin-1-ylmethyl)benzofuran-3(2H)-one] | 93% | – | – |
| COc1ccc2c(c1C(C)N1CCNCC1)O/C(=C\c1n[nH]c3ccccc13)C2=O (stereo not drawn) [Compound B20, (Z)-2-[(1H-Indazol-3-yl)methylene]-6-methoxy-7-[1-(piperazin-1-yl)-ethyl]benzofuran-3(2H)-one] | 95% | – | – |
| O=C1/C(=C/c2n[nH]c3ccccc23)Oc2c1ccc(OCc1ccccc1)c2CN1CCNCC1 [Compound B28, (Z)-2-[(1H-Indazol-3-yl)methylene]-6-(benzyloxy)-7-(piperazin-ylmethyl)benzofuran-3(2H)-one] | – | – | Pim-1 kinase inhibitory activity (%) ([2]; Table 2): 92% |

| Structure (SMILES) | inhibition at 0.1 µM ([2]; Table 2) | inhibition at 1 µM ([1]; Table 7) | other results |
| --- | --- | --- | --- |
| COc1ccc2c(c1CN1CCN(C)CC1)O/C(=C\c1n[nH]c3ccccc13)C2=O [Compound B32, (Z)-2-[(1H-Indazol-3-yl)methylene]-6-methoxy-7-[(4-methylpiperazin-1-yl)methyl]benzofuran-3(2H)-one] | 63% | – | – |
| COc1ccc2c(c1CN1CCOCC1)O/C(=C\c1n[nH]c3ccccc13)C2=O [Compound B33, (Z)-2-[(1H-Indazol-3-yl)methylene]-6-methoxy-7-(morpholinomethyl)benzofuran-3(2H)-one] | 39% | – | – |
| O=C1/C(=C/c2n[nH]c3ccccc23)Oc2c1ccc(OCCO)c2CN1CCNCC1 [Compound B34, (Z)-2-[(1H-Indazol-3-yl)methylene]-6-(2-hydroxyethoxy)-7-(piperazin-1-ylmethyl)benzofuran-3(2H)-one] | 94% | – | – |
| O=C1/C(=C/c2n[nH]c3ccccc23)Oc2c1ccc(O)c2C(=O)N1CCNCC1 [Compound B36, (Z)-2-[(1H-Indazol-3-yl)methylene]-6-hydroxy-7-(piperazine-1-carbonyl)benzofuran-3(2H)-one] | 31% | – | – |
| CN1CCN(Cc2cc(Cl)cc3c2O/C(=C\c2n[nH]c4ccccc24)C3=O)CC1 [Compound B40, (Z)-2-[(1H-Indazol-3-yl)methylene]-5-chloro-7-[(4-methylpiperazin-1-yl)methyl]benzofuran-3(2H)-one] | 14% | – | – |
| O=C1/C(=C/c2n[nH]c3ccccc23)Oc2c(CN3CCNCC3)cccc21 [Compound B45, (Z)-2-[(1H-Indazol-3-yl)methylene]-7-(piperazin-1-ylmethyl)benzofuran-3(2H)-one] | 79% | 28% | – |
| COc1ccc2c(c1C#CCN1CCNCC1)O/C(=C\c1n[nH]c3ccccc13)C2=O [Compound B46, (Z)-2-[(1H-Indazol-3-yl)methylene]-6-methoxy-7-[3-(piperazin-1-yl)prop-1-ynyl]benzofuran-3(2H)-one] | 86% | 97% | – |
| COc1ccc2c(c1/C=C\CN1CCNCC1)O/C(=C\c1n[nH]c3ccccc13)C2=O [Compound B47, (Z)-2-[(1H-Indazol-3-yl)methylene]-6-methoxy-7-[(Z)-3-(piperizin-1-yl)prop-1-enyl]benzofuran-3(2H)-one (Z)-2-[(1H-Indazol-3-yl)methylene]-6-methoxy-7-[(Z)-3-(piperazin-1-yl)prop-1-enyl]benzofuran-3(2H)-one] | 84% | 99% | – |
| COc1ccc2c(c1CCCN1CCNCC1)O/C(=C\c1n[nH]c3ccccc13)C2=O [Compound B48, (Z)-2-[(1H-Indazol-3-yl)methylene]-6-methoxy-7-[3-(piperazin-1-yl)propyl]benzofuran-3(2H)-one] | 75% | 96% | – |
| COc1ccc2c(c1C#CCCN1CCNCC1)O/C(=C\c1n[nH]c3ccccc13)C2=O [Compound B49, (Z)-2-[(1H-Indazol-3-yl)methylene]-6-methoxy-7-[4-(piperazin-1-yl)but-1-ynyl]benzofuran-3(2H)-one] | 63% | 93% | – |
| COc1ccc2c(c1/C=C\CCN1CCNCC1)O/C(=C\c1n[nH]c3ccccc13)C2=O [Compound B50, (Z)-2-[(1H-Indazol-3-yl)methylene]-6-methoxy-7-[(Z)-4-(piperazin-1-yl)but-1-enyl]benzofuran-3(2H)-one] | 82% | 96% | – |
| COc1ccc2c(c1CCCCN1CCNCC1)O/C(=C\c1n[nH]c3ccccc13)C2=O [Compound B51, (Z)-2-[(1H-Indazol-3-yl)methylene]-6-methoxy-7-[4-(piperazin-1-yl)butyl]benzofuran-3(2H)-one] | 86% | 94% | – |
| COc1ccc2c(c1C1=CCNCC1)O/C(=C\c1n[nH]c3ccccc13)C2=O [Compound B52, (Z)-2-[(1H-Indazol-3-yl)methylene]-6-methoxy-7-(1,2,3,6-tetrahydropyridin-4-yl)benzofuran-3(2H)-one] | 50% | 98% | – |
| COc1ccc2c(c1C1CCNCC1)O/C(=C\c1n[nH]c3ccccc13)C2=O [Compound B53, (Z)-2-[(1H-Indazol-3-yl)methylene]-6-methoxy-7-(piperidin-4-yl)benzofuran-3(2H)-one] | 36% | 98% | – |
| COc1ccc2c(c1CC1CCNCC1)O/C(=C\c1n[nH]c3ccccc13)C2=O [Compound B54, (Z)-2-[(1H-Indazol-3-yl)methylene]-6-methoxy-7-(piperidin-4-ylmethyl)benzofuran-3(2H)-one] | 98% | 97% | – |
